# Reference: US20220089575A1, “FARNESOID X RECEPTOR AGONISTS AND USES THEREOF” (Metacrine, Inc., priority 2017, published 2022)
# Molecular target: T1, hFXR (Homo sapiens, UniProt Q96RI1)
# T1 construct: expressed in transfected cells; host or cells: CV-1 cells
# T1 sequence (Q96RI1 1-486): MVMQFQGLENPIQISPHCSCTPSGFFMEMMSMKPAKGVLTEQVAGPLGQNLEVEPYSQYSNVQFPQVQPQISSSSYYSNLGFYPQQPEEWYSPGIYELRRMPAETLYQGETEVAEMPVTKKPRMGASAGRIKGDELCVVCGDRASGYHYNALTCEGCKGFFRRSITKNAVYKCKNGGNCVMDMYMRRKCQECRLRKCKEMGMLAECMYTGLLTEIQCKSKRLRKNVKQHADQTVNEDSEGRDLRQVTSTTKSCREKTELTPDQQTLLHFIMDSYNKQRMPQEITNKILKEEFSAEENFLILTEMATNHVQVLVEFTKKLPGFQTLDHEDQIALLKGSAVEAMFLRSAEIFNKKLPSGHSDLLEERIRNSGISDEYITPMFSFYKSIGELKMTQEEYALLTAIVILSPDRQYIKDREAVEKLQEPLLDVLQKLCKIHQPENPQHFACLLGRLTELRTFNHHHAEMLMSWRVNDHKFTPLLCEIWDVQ
# T1 sequence (P19793 1-462 partner): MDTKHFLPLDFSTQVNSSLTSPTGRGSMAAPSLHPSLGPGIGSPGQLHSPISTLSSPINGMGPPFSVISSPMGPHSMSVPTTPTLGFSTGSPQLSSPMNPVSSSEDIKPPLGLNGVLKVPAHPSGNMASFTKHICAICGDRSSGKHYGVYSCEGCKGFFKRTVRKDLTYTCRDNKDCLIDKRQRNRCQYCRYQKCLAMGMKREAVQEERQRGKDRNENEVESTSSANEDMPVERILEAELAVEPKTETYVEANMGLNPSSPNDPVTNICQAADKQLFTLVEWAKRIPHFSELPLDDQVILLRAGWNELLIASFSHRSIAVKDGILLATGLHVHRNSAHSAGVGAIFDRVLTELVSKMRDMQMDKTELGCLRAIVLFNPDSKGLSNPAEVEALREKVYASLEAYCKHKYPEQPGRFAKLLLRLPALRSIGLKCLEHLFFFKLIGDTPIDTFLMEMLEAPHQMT
# Assay: In Vitro FXR Assay (TK): TK-ECRE-luc reporter in transfected CV-1 cells
# Format: cell-based
# Settings: 18 hrs, luminescence, maximum efficacy of <25% of the Fexarmine control classified as '+'
# Method in brief: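 Cells are seeded in charcoal double-stripped FBS medium, transfected overnight with FXR/RXR expression and ECRE-driven luciferase reporter plasmids, then treated with serially diluted compounds for 18 h. Lysates are measured for luciferase light output.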
row,Compound,EC50 [nM]
1,"CNC(=O)O[C@H]1CC[C@H](C(=O)N(C[C@H]2CC[C@H](c3ccc(OC)c(C)n3)CC2)c2cccc(-c3cnn(C4CCC4)c3)c2)CC1 [Compound 5.21, trans-4-((3-(1-Cyclobutyl-1H-pyrazol-4-yl)phenyl)((trans-4-(5-methoxy-6-methylpyridin-2-yl)cyclohexyl)methyl)carbamoyl)cyclohexyl methylcarbamate]",≤ 250
2,"COc1ccc([C@H]2CC[C@H](CN(c3cccc(-c4cnn(C5CC5)c4)c3)C(=O)[C@H]3CC[C@H](OC(=O)N(C)C)CC3)CC2)cc1C [Compound 5.22, trans-4-((3-(1-Cyclopropyl-1H-pyrazol-4-yl)phenyl)((trans-4-(4-methoxy-3-methylphenyl)cyclohexyl)methyl)carbamoyl)cyclohexyl dimethylcarbamate]",≤ 250
3,"CNC(=O)O[C@H]1CC[C@H](C(=O)N(C[C@H]2CC[C@H](c3ccc(OC)c(C#N)n3)CC2)c2cccc(-c3cnn(C4CC4)c3)c2)CC1 [Compound 5.23, trans-4-(((trans-4-(6-Cyano-5-methoxypyridin-2-yl)cyclohexyl)methyl)(3-(1-cyclopropyl-1H-pyrazol-4-yl)phenyl)carbamoyl)cyclohexyl methylcarbamate]",≤ 250
4,"CNC(=O)O[C@H]1CC[C@H](C(=O)N(C[C@H]2CC[C@H](c3ccc(OC)c(C)n3)CC2)c2cc(-c3cnn(C(C)C)c3)ccn2)CC1 [Compound 5.24, trans-4-((4-(1-Isopropyl-1H-pyrazol-4-yl)pyridin-2-yl)((trans-4-(5-methoxy-6-methylpyridin-2-yl)cyclohexyl)methyl)carbamoyl)cyclohexyl methylcarbamate]",≤ 250
5,"CCNC(=O)O[C@H]1CC[C@H](C(=O)N(C[C@H]2CC[C@H](c3ccc(OC)c(C)n3)CC2)c2cc(-c3cnn(C(C)C)c3)ccn2)CC1 [Compound 5.25, trans-4-((4-(1-Isopropyl-1H-pyrazol-4-yl)pyridin-2-yl)((trans-4-(5-methoxy-6-methylpyridin-2-yl)cyclohexyl)methyl)carbamoyl)cyclohexyl ethylcarbamate]",≤ 250
6,"CNC(=O)O[C@H]1CC[C@H](C(=O)N(C[C@H]2CC[C@H](c3ccc(OC)c(C#N)n3)CC2)c2cc(-c3cnn(C(C)C)c3)ccn2)CC1 [Compound 5.26, trans-4-(((trans-4-(6-Cyano-5-methoxypyridin-2-yl)cyclohexyl)methyl)(4-(1-isopropyl-1H-pyrazol-4-yl)pyridin-2-yl)carbamoyl)cyclohexyl methylcarbamate]",≤ 250
7,"CNC(=O)O[C@H]1CC[C@H](C(=O)N(C[C@H]2CC[C@H](c3ccc(OC)c(C#N)n3)CC2)c2cc(-c3cnn(C4CC4)c3)ccn2)CC1 [Compound 5.27, trans-4-(((trans-4-(6-Cyano-5-methoxypyridin-2-yl)cyclohexyl)methyl)(4-(1-cyclopropyl-1H-pyrazol-4-yl)pyridin-2-yl)carbamoyl)cyclohexyl methylcarbamate]",≤ 250
8,"CNC(=O)O[C@H]1CC[C@H](C(=O)N(C[C@H]2CC[C@H](c3ccc(OC)c(C#N)n3)CC2)c2cccc(-c3cnn(C(C)C)c3)c2)CC1 [Compound 5.28, trans-4-(((trans-4-(6-Cyano-5-methoxypyridin-2-yl)cyclohexyl)methyl)(3-(1-isopropyl-1H-pyrazol-4-yl)phenyl)carbamoyl)cyclohexyl methylcarbamate]",≤ 250
9,"CCNC(=O)O[C@H]1CC[C@H](C(=O)N(C[C@H]2CC[C@H](c3ccc(OC)c(C#N)n3)CC2)c2cc(-c3cnn(C(C)C)c3)ccn2)CC1 [Compound 5.29, trans-4-(((trans-4-(6-Cyano-5-methoxypyridin-2-yl)cyclohexyl)methyl)(4-(1-isopropyl-1H-pyrazol-4-yl)pyridin-2-yl)carbamoyl)cyclohexyl ethylcarbamate]",≤ 250
10,"CNC(=O)O[C@H]1CC[C@H](C(=O)N(C[C@H]2CC[C@H](c3ccc(OC)c(C)c3)CC2)c2cccc(-c3coc(C(C)C)n3)c2)CC1 [Compound 5.30, trans-4-((3-(2-Isopropyloxazol-4-yl)phenyl)((trans-4-(4-methoxy-3-methylphenyl)cyclohexyl)methyl)carbamoyl)cyclohexyl methylcarbamate]",≤ 250
11,"CNC(=O)O[C@H]1CC[C@H](C(=O)N(C[C@H]2CC[C@H](c3ccc(OC)c(C)n3)CC2)c2cccc(-c3coc(C(C)C)n3)c2)CC1 [Compound 5.31, trans-4-((3-(2-Isopropyloxazol-4-yl)phenyl)((trans-4-(5-methoxy-6-methylpyridin-2-yl)cyclohexyl)methyl)carbamoyl)cyclohexyl methylcarbamate]",≤ 250
12,"CNC(=O)O[C@H]1CC[C@H](C(=O)N(C[C@H]2CC[C@H](c3ccc(OC)c(C)n3)CC2)c2cccc(-c3coc(C4CC4)n3)c2)CC1 [Compound 5.32, trans-4-((3-(2-Cyclopropyloxazol-4-yl)phenyl)((trans-4-(5-methoxy-6-methylpyridin-2-yl)cyclohexyl)methyl)carbamoyl)cyclohexyl methylcarbamate]",≤ 250
13,"CNC(=O)O[C@H]1CC[C@H](C(=O)N(C[C@H]2CC[C@H](c3ccc(OC)c(C)c3)CC2)c2cc(-c3coc(C4CC4)n3)ccn2)CC1 [Compound 5.33, trans-4-((4-(2-Cyclopropyloxazol-4-yl)pyridine-2-yl)((trans-4-(4-methoxy-3-methylphenyl)cyclohexyl)methyl)carbamoyl)cyclohexyl methylcarbamate]",≤ 250
14,"CNC(=O)O[C@H]1CC[C@H](C(=O)N(C[C@H]2CC[C@H](c3ccc(OC)c(C)n3)CC2)c2cc(-c3coc(C4CC4)n3)ccn2)CC1 [Compound 5.34, trans-4-((4-(2-Cyclopropyloxazol-4-yl)pyridine-2-yl)((trans-4-(5-methoxy-6-methylpyridin-2-yl)cyclohexyl)methyl)carbamoyl)cyclohexyl methylcarbamate]",≤ 250
15,"CNC(=O)O[C@H]1CC[C@H](C(=O)N(C[C@H]2CC[C@H](c3ccc(OC)c(C#N)c3)CC2)c2cccc(-c3coc(C4CC4)n3)c2)CC1 [Compound 5.35, trans-4-(((trans-4-(3-Cyano-4-methoxyphenyl)cyclohexyl)methyl)(3-(2-cyclopropyloxazol-4-yl)phenyl)carbamoyl)cyclohexyl methylcarbamate]",≤ 250
16,"CNC(=O)O[C@H]1CC[C@H](C(=O)N(C[C@H]2CC[C@H](c3ccc(OC)c(C)c3)CC2)c2cccc(-c3ccc(N(C)C)nc3)c2)CC1 [Compound 5.36, trans-4-((3-(6-(Dimethylamino)pyridine-3-yl)phenyl)((trans-4-(4-methoxy-3-methylphenyl)cyclohexyl)methyl)carbamoyl)cyclohexyl methylcarbamate]",≤ 250
17,"CNC(=O)O[C@H]1CC[C@H](C(=O)N(C[C@H]2CC[C@H](c3ccc(OC)c(C)c3)CC2)c2cccc(-c3ccc(C4CC4)nc3)c2)CC1 [Compound 5.37, trans-4-((3-(6-Cyclopropylpyridin-3-yl)phenyl)((trans-4-(4-methoxy-3-methylphenyl)cyclohexyl)methyl)carbamoyl)cyclohexyl methylcarbamate]",≤ 250
18,"CNC(=O)O[C@H]1CC[C@H](C(=O)N(C[C@H]2CC[C@H](c3ccc(OC)c(C)c3)CC2)c2cccc(-c3cnc(N(C)C)nc3)c2)CC1 [Compound 5.38, trans-4-((3-(2-(Dimethylamino)pyrimidin-5-yl)phenyl)((trans-4-(4-methoxy-3-methylphenyl)cyclohexyl)methyl)carbamoyl)cyclohexyl methylcarbamate]",≤ 250
19,"CNC(=O)O[C@H]1CC[C@H](C(=O)N(C[C@H]2CC[C@H](c3ccc(OC)c(C#N)c3)CC2)c2cc(-c3coc(C4CC4)n3)ccn2)CC1 [Compound 5.39, trans-4-(((trans-4-(3-Cyano-4-methoxyphenyl)cyclohexyl)methyl)(4-(2-cyclopropyloxazol-4-yl)pyridine-2-yl)carbamoyl)cyclohexyl methylcarbamate]",≤ 250
20,"CNC(=O)O[C@H]1CC[C@H](C(=O)N(C[C@H]2CC[C@H](c3ccc(OC)c(C)c3)CC2)c2cc(-c3ccc(N(C)C)nc3)ccn2)CC1 [Compound 5.40, trans-4-((6-(Dimethylamino)-[3,4′-bipyridin]-2′-yl)((trans-4-(4-methoxy-3-methylphenyl)cyclohexyl)methyl)carbamoyl)cyclohexyl methylcarbamate]",≤ 250
21,"CNC(=O)O[C@H]1CC[C@H](C(=O)N(C[C@H]2CC[C@H](c3ccc(OC)c(C)n3)CC2)c2cccc(-c3ccc(N(C)C)nc3)c2)CC1 [Compound 5.41, trans-4-((3-(6-((Dimethylamino)pyridine-3-yl)phenyl)((trans-4-(5-methoxy-6-methylpyridin-2-yl)cyclohexyl)methyl)carbamoyl)cyclohexyl methylcarbamate]",≤ 250
